Values joined by “and” are separate entries in the source; they are usually repeats but may differ in a detail not shown here. Equal values may be shown once.
Tested on: BDF1 mice, Adenocarcinoma 755 s.c., tumor weight T/C
Test: NCI In Vivo Anticancer Drug Screen. Data for tumor model Adenocarcinoma 755 (subcutaneous) in B6D2F1 (BDF1) mice
Details: endpoint: mean tumor weight, higher = larger tumour
In short: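 Readout: T/C, i.e. treated-group measurement over vehicle-control measurement. Endpoint is survival or tumor size in tumor-bearing mice given compound.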

[1] = dose: 20.0 mg/kg/injection, schedule: Q01DX011 (sc), vehicle: steriod suspending solution
[2] = dose: 40.0 mg/kg/injection, schedule: Q01DX011 (sc), vehicle: steriod suspending solution
[3] = dose: 80.0 mg/kg/injection, schedule: Q01DX011 (sc), vehicle: steriod suspending solution
[4] = dose: 160.0 mg/kg/injection, schedule: Q01DX011 (sc), vehicle: steriod suspending solution

With `C[C@]12C[C@H](O)[C@H]3[C@@H](CCC4=CC(=O)CC[C@@]43C)[C@@H]1CC[C@@H]2C(=O)CO` the T/C (dose: 10.0 mg/kg/injection, schedule: Q01DX011 (ip), vehicle: steriod suspending solution) was 110 % of control, the T/C (dose: 10.0 mg/kg/injection, schedule: Q01DX011 (sc), vehicle: steriod suspending solution) was 79 % of control and the T/C (dose: 20.0 mg/kg/injection, schedule: Q01DX011 (ip), vehicle: steriod suspending solution) was 103 % of control. For the same compound, the T/C [1] was 84 % of control, the T/C (dose: 40.0 mg/kg/injection, schedule: Q01DX011 (im), vehicle: steriod suspending solution) was 67 % of control and the T/C (dose: 40.0 mg/kg/injection, schedule: Q01DX011 (ip), vehicle: steriod suspending solution) was 81 % of control. The T/C (dose: 40.0 mg/kg/injection, schedule: Q01DX011 (iv), vehicle: steriod suspending solution) was 87 % of control, the T/C [2] was 64 % of control and the T/C (dose: 50.0 mg/kg/injection, schedule: Q#A X022 (sc), vehicle: steriod suspending solution) was 20 % of control. For the same compound, the T/C (dose: 80.0 mg/kg/injection, schedule: Q01DX011 (im), vehicle: steriod suspending solution) was 49 % of control, the T/C (dose: 80.0 mg/kg/injection, schedule: Q01DX011 (ip), vehicle: steriod suspending solution) was 95 % of control and the T/C (dose: 80.0 mg/kg/injection, schedule: Q01DX011 (iv), vehicle: steriod suspending solution) was 64 % of control. For the same compound, the T/C (dose: 80.0 mg/kg/injection, schedule: Q01DX011 (oral), vehicle: steriod suspending solution) was 58 % of control, the T/C [3] was 51 % of control and the T/C (dose: 100.0 mg/kg/injection, schedule: Q01DX011 (oral), vehicle: steriod suspending solution) was 38 % of control. For the same compound, the T/C (dose: 100.0 mg/kg/injection, schedule: Q#A X022 (sc), vehicle: steriod suspending solution) was 8 % of control, the T/C (dose: 150.0 mg/kg/injection, schedule: Q03DX004 (sc), vehicle: steriod suspending solution) was 51 % of control and the T/C (dose: 160.0 mg/kg/injection, schedule: Q01DX011 (im), vehicle: steriod suspending solution) was 30 % of control. The T/C (dose: 160.0 mg/kg/injection, schedule: Q01DX011 (ip), vehicle: steriod suspending solution) was 72 % of control, the T/C (dose: 160.0 mg/kg/injection, schedule: Q01DX011 (iv), vehicle: steriod suspending solution) was 42 % of control and the T/C [4] was 31 % of control. The T/C (dose: 175.0 mg/kg/injection, schedule: Q07DX002 (sc), vehicle: steriod suspending solution) was 104 % of control, the T/C (dose: 300.0 mg/kg/injection, schedule: Q03DX004 (sc), vehicle: steriod suspending solution) was 24 % of control and the T/C (dose: 320.0 mg/kg/injection, schedule: Q01DX011 (im), vehicle: steriod suspending solution) was 22 % of control. For the same compound, the T/C (dose: 320.0 mg/kg/injection, schedule: Q01DX011 (ip), vehicle: steriod suspending solution) was 42 % of control, the T/C (dose: 320.0 mg/kg/injection, schedule: Q01DX011 (oral), vehicle: steriod suspending solution) was 38 % of control and the T/C (dose: 320.0 mg/kg/injection, schedule: Q01DX011 (sc), vehicle: steriod suspending solution) was 16 % of control. The T/C (dose: 350.0 mg/kg/injection, schedule: Q07DX002 (sc), vehicle: steriod suspending solution) was 58 % of control, the T/C (dose: 400.0 mg/kg/injection, schedule: Q01DX011 (oral), vehicle: steriod suspending solution) was 22 % of control and the T/C (dose: 600.0 mg/kg/injection, schedule: Q03DX004 (sc), vehicle: steriod suspending solution) was 9 % of control. For the same compound, the T/C (dose: 640.0 mg/kg/injection, schedule: Q01DX011 (oral), vehicle: steriod suspending solution) was 17 % of control and 18 % of control, the T/C (dose: 700.0 mg/kg/injection, schedule: Q07DX002 (sc), vehicle: steriod suspending solution) was 20 % of control and the T/C (dose: 1200.0 mg/kg/injection, schedule: Q03DX004 (sc), vehicle: steriod suspending solution) was 5 % of control. The T/C (dose: 1400.0 mg/kg/injection, schedule: Q07DX002 (sc), vehicle: steriod suspending solution) was 16 % of control.
With `CC1CCOS(=O)O1` (stereo not drawn) the T/C (dose: 20.0 mg/kg/injection, schedule: Q01DX011 (ip), vehicle: carboxymethylcellulose (CMC)) was 76 % of control and the T/C (dose: 40.0 mg/kg/injection, schedule: Q01DX011 (ip), vehicle: carboxymethylcellulose (CMC)) was 18 % of control.
For `CC(=O)OCC(=O)[C@@]1(O)CC[C@H]2[C@@H]3CCC4=CC(=O)C=C[C@]4(C)[C@H]3[C@@H](O)C[C@@]21C`, the T/C [1] was 23 % of control and 26 % of control, the T/C [2] was 24 % of control and 26 % of control and the T/C (dose: 67.5 mg/kg/injection, schedule: Q01DX011 (sc), vehicle: steriod suspending solution) was 30 % of control. The T/C [3] was 88 % of control and the T/C [4] was 40 % of control.
For `C[C@]12CCC(=O)C=C1CC[C@@H]1[C@@H]2[C@@H](O)C[C@]2(C)C(=O)CC[C@@H]12`, the T/C (dose: 100.0 mg/kg/injection, schedule: Q01DX011 (sc), vehicle: steriod suspending solution) was 107 % of control and the T/C (dose: 200.0 mg/kg/injection, schedule: Q01DX011 (sc), vehicle: steriod suspending solution) was 83 % of control.

— PubChem BioAssay AID180 (DTP/NCI, 2004)
